Data published in patent US8404677B2, “Kinase inhibitors” (Genosco, priority 2009, dated 2013).
pIC50: −log10 of the molar value.

Assays:
[1] = target: T1, AURKA (Homo sapiens, UniProt O14965); assay: In vitro kinase inhibition, Ambit Biosciences panel; format: binding; conditions: lower numbers indicate stronger activities
T1 construct: purchased Ambit Biosciences
Description: (§1) Up to 518 different kinases have been identified in humans. They act on small molecules such as lipids, carbohydrates, amino acids, and nucleotides. To determine the scope of inhibitory effects of a representative compound of Formula (I) on known kinases, Compound 6 was tested against 104 commercially available kinases (Ambit Biosciences™) in vitro. 104 kinases included ABL1(E255K)-phosphorylated, ABL1(T315I)-phosphorylated, ABL1-phosphorylated, ACVR1B, ADCK3, AKT1, AKT2, ALK, AURKA, AURKB, AXL, BMPR2, BRAF, BRAF(V600E), BTK, CDK11, CDK2, CDK3, CDK7, CDK9, CHEK1, CSF1R, CSNK1D, CSNK1G2, DCAMKL1, DYRK1B, EGFR, EGFR(L858R), EPHA2, ERBB2, ERBB4, ERK1, FAK, FGFR2, FGFR3, FLT1, FLT3, FLT4, GSK3B, IGF1R, IKK-α, IKK-β, INSR, JAK2(JH1domain-catalytic), JAK3(JH1domain-catalytic), JNK1, JNK2, JNK3, KIT, KIT(D816V), KIT(V559D,T670I), LKB1, LRRK2, LRRK2(G2019S), MAP3K4, MAPKAPK2, MARK3, MEK1, MEK2, MET, MKNK1, MKNK2, MLK1, MTOR, p38-alpha, p38-beta, PAK1, PAK2, PAK4, PCTK1, PDGFRA, PDGFRB, PDPK1, PIK3C2B, PIK3CA, PIK3CG, PIM1, PIM2, PIM3, PKAC-alpha, PLK1, PLK3, PLK4, PRKCE, PYK2, RAFT, RET, RIOK2, ROCK2, RSK2, SNARK, SRC, SRPK3, SYK, TAK1, TGFBR1, TIE2, TRKA, TSSK1B, TYK2(JH1domain-catalytic), ULK2, VEGFR2, YANK3 and ZAP70.
(§2) Inhibition activity of Compound 6 was reported as percent control where lower numbers indicate stronger activities. […] Conventionally, the percent control of less than 35 is deemed to be significant inhibition of kinase activity as the numeric value 35 is frequently used as a threshold.

[2] = target: T2, AXL (Homo sapiens, UniProt P30530); assay: as above; format: binding; conditions: lower numbers indicate stronger activities
T2 construct: purchased Ambit Biosciences
Description: as §1, §2

[3] = target: T3, FAK (Homo sapiens, UniProt Q05397); assay: as above; format: binding; conditions: lower numbers indicate stronger activities
T3 construct: purchased Ambit Biosciences
Description: as §1, §2

[4] = target: T4, FLT3 (Homo sapiens, UniProt P36888); assay: as above; format: binding; conditions: lower numbers indicate stronger activities
T4 construct: purchased Ambit Biosciences
Description: as §1, §2

[5] = target: T5, JAK3 (Homo sapiens, UniProt P52333); assay: as above; format: binding; conditions: lower numbers indicate stronger activities
T5 construct: JAK2(JH1domain-catalytic), JAK3(JH1domain-catalytic); purchased Ambit Biosciences
Description: as §1, §2

[6] = target: T6, JNK1 (Homo sapiens, UniProt P45983); assay: as above; format: binding; conditions: lower numbers indicate stronger activities
T6 construct: purchased Ambit Biosciences
Description: as §1, §2

[7] = target: T7, JNK2 (Homo sapiens, UniProt P45984); assay: as above; format: binding; conditions: lower numbers indicate stronger activities
T7 construct: purchased Ambit Biosciences
Description: as §1, §2

[8] = target: T8, JNK3 (Homo sapiens, UniProt P53779); assay: as above; format: binding; conditions: lower numbers indicate stronger activities
T8 construct: purchased Ambit Biosciences
Description: as §1, §2

[9] = target: T9, KIT(D816V) (Homo sapiens, UniProt P10721, D816V); assay: as above; format: binding; conditions: lower numbers indicate stronger activities
T9 construct: purchased Ambit Biosciences
Description: as §1, §2

[10] = target: T10, LKB1 (Homo sapiens, UniProt Q15831); assay: as above; format: binding; conditions: lower numbers indicate stronger activities
T10 construct: purchased Ambit Biosciences
Description: as §1, §2

[11] = target: T11, LRRK2(G2019S) (Homo sapiens, UniProt Q5S007, G2019S); assay: as above; format: binding; conditions: lower numbers indicate stronger activities
T11 construct: purchased Ambit Biosciences
Description: as §1, §2

[12] = target: T12, PAK4 (Homo sapiens, UniProt O96013); assay: as above; format: binding; conditions: lower numbers indicate stronger activities
T12 construct: purchased Ambit Biosciences
Description: as §1, §2

[13] = target: T13, PDGFRB (Homo sapiens, UniProt P09619); assay: as above; format: binding; conditions: lower numbers indicate stronger activities
T13 construct: purchased Ambit Biosciences
Description: as §1, §2

[14] = target: T14, PLK4 (Homo sapiens, UniProt O00444); assay: as above; format: binding; conditions: lower numbers indicate stronger activities
T14 construct: purchased Ambit Biosciences
Description: as §1, §2

[15] = target: T15, RET (Homo sapiens, UniProt P07949); assay: as above; format: binding; conditions: lower numbers indicate stronger activities
T15 construct: purchased Ambit Biosciences
Description: as §1, §2

[16] = target: T16, RSK2 (Homo sapiens, UniProt P51812); assay: as above; format: binding; conditions: lower numbers indicate stronger activities
T16 construct: RSK2 (Kin.Dom.1-N-terminal); purchased Ambit Biosciences
Description: as §1, §2

[17] = target: T17, SNARK (Homo sapiens, UniProt Q9H093); assay: as above; format: binding; conditions: lower numbers indicate stronger activities
T17 construct: purchased Ambit Biosciences
Description: as §1, §2

[18] = target: T18, SRPK3 (Homo sapiens, UniProt Q9UPE1); assay: as above; format: binding; conditions: lower numbers indicate stronger activities
T18 construct: purchased Ambit Biosciences
Description: as §1, §2

[19] = target: T19, TAK1 (Homo sapiens, UniProt O43318); assay: as above; format: binding; conditions: lower numbers indicate stronger activities
T19 construct: purchased Ambit Biosciences
Description: as §1, §2

[20] = target: T20, TYK2 (Homo sapiens, UniProt P29597); assay: as above; format: binding; conditions: lower numbers indicate stronger activities
T20 construct: TYK2(JH1domain-catalytic); purchased Ambit Biosciences
Description: as §1, §2

[21] = tested on: CCRF-CEM; assay: cells; format: cell-based; conditions: CCRF-CEM (Leukemia)
[22] = tested on: NCI-H522; assay: cells; format: cell-based; conditions: NCI-H522 (NSCLC)
[23] = tested on: SK-MEL-28; assay: cells; format: cell-based; conditions: SK-MEL-28 (Melanoma)
[24] = tested on: OVCAR-3; assay: cells; format: cell-based; conditions: OVCAR-3 (Ovarian Cancer)
[25] = tested on: ACHN; assay: cells; format: cell-based; conditions: ACHN (Renal Cancer)
[26] = Homo sapiens, read-out: LC50 (the source's name)

T13 sequence (P09619 33-1106): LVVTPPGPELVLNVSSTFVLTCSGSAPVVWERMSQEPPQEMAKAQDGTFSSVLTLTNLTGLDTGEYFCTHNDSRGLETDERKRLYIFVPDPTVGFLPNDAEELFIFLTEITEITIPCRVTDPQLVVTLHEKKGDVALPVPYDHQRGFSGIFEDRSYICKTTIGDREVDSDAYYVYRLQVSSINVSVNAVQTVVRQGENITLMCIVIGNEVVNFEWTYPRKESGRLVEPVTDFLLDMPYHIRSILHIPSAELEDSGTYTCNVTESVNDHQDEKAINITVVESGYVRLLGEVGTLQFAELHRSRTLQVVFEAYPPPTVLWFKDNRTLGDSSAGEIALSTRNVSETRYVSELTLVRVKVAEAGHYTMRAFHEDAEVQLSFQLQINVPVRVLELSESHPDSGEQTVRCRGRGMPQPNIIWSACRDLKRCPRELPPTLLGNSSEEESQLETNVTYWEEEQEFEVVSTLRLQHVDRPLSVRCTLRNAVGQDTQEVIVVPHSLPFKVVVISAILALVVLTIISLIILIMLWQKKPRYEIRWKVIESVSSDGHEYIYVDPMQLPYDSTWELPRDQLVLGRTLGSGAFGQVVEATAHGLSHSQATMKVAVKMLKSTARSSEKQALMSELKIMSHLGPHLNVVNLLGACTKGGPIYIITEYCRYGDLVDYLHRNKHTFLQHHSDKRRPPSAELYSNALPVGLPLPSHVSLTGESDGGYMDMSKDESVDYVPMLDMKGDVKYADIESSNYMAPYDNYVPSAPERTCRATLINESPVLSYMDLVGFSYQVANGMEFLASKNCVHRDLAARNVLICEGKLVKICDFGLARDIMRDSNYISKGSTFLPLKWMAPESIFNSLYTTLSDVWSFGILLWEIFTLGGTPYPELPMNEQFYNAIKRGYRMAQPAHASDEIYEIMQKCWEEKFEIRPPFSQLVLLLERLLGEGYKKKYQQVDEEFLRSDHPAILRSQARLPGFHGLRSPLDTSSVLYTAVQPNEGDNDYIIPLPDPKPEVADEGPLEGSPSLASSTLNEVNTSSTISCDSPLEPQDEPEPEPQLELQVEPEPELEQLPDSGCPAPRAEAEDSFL
T11 sequence (Q5S007 whole entry G2019S): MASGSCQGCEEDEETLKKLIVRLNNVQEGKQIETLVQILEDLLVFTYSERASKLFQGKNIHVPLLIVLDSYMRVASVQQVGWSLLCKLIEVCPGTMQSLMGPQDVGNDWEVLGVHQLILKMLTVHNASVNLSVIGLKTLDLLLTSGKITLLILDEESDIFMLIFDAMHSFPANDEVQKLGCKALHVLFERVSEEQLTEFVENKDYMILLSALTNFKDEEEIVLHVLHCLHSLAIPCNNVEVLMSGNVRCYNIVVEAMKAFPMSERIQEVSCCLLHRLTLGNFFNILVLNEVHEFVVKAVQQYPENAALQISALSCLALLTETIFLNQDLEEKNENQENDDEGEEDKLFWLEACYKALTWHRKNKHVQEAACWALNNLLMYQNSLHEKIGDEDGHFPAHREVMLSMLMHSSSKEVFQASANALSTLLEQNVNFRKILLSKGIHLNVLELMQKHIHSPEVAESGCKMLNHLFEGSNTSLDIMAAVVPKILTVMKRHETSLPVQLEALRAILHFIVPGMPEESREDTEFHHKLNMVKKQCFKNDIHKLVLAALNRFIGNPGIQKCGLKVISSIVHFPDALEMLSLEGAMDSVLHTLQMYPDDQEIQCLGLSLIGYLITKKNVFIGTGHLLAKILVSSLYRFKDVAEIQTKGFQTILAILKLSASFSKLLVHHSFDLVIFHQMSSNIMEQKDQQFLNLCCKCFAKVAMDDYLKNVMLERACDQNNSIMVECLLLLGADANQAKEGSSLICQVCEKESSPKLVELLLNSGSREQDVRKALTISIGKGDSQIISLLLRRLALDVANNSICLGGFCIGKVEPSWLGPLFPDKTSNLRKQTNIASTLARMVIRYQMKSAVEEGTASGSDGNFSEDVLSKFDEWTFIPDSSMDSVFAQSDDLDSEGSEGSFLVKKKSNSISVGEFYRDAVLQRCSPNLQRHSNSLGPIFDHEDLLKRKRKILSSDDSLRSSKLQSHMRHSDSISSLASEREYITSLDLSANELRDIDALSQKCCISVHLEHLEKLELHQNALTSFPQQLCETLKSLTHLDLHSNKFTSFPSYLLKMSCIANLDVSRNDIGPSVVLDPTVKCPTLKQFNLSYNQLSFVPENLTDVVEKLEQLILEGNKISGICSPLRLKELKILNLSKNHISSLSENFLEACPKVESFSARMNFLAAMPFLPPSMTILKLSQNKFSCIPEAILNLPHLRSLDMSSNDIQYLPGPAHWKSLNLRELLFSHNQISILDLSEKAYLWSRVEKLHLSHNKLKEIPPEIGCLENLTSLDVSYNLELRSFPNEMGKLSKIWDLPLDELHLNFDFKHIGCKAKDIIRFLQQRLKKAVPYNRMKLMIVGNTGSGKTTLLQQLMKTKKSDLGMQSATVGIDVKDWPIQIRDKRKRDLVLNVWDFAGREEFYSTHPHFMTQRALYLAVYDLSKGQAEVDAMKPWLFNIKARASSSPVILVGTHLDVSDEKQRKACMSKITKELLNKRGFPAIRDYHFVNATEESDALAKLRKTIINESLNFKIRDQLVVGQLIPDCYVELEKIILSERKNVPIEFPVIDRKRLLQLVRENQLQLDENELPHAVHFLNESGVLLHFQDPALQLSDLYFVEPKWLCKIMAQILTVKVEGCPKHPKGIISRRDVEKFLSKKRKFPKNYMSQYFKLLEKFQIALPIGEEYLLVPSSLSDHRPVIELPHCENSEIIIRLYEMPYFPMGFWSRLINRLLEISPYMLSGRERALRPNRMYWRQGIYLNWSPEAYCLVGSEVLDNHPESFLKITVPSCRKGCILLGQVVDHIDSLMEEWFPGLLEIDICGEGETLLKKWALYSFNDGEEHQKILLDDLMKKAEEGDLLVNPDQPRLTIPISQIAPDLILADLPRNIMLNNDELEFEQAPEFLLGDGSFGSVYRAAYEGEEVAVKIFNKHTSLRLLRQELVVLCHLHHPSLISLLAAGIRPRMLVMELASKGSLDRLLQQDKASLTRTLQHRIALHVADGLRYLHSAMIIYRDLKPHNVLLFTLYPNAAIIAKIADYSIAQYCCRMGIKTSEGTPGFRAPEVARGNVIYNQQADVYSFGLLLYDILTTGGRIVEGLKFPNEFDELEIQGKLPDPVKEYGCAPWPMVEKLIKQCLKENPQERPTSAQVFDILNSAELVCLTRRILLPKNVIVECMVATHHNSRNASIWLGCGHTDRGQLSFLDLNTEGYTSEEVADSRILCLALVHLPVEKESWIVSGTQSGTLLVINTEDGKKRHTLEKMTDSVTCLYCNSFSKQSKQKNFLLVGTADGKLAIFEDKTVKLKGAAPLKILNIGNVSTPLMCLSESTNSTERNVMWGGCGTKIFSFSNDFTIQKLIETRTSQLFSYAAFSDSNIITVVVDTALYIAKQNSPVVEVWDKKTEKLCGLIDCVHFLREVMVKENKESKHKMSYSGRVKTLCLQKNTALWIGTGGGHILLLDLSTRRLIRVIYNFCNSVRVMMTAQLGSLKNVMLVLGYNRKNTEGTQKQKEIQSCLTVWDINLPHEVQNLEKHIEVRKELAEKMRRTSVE
T2 sequence (P30530 26-894): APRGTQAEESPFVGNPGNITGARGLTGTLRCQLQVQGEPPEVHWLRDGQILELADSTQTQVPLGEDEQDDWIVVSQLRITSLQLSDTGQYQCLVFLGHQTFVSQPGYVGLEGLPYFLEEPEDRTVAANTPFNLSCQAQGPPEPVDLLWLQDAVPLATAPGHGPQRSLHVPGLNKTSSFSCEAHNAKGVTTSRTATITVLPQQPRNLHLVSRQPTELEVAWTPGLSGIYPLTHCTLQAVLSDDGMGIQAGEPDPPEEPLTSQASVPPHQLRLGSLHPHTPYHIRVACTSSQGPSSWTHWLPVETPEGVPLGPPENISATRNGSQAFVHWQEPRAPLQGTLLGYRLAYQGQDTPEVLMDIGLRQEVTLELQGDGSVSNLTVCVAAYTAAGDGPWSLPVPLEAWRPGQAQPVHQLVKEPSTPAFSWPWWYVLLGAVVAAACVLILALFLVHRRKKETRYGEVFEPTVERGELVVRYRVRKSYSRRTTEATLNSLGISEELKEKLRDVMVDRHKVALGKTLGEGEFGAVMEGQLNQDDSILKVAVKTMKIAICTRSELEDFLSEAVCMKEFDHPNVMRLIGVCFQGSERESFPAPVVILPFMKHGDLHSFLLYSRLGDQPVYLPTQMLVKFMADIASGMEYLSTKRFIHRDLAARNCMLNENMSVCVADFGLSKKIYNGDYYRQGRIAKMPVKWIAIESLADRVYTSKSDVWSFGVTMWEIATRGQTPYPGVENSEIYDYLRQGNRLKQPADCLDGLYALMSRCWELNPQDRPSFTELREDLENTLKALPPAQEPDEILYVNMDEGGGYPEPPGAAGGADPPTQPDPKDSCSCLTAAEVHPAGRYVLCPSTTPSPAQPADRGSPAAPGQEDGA
T20 sequence (P29597 897-1176 limits assumed): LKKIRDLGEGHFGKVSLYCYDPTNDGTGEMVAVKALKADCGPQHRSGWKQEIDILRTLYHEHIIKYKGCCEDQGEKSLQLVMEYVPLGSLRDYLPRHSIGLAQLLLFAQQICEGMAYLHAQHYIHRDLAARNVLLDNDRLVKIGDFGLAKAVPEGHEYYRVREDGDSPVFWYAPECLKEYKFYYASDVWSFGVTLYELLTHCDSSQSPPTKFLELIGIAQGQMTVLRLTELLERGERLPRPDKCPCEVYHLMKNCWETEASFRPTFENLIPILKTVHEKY
T16 sequence (P51812 68-327 limits assumed): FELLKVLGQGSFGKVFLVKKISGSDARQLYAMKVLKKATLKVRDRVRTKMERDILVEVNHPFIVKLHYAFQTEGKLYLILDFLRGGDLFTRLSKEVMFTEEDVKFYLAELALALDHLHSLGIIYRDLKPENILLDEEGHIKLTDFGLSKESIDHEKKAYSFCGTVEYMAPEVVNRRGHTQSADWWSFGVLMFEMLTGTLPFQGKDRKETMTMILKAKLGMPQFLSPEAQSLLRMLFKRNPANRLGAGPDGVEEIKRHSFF

## O=c1[nH]ccc2nc(N3CCC(O)CC3)nc(Nc3cccc(C(F)(F)F)c3)c12 [Compound 6, 2-(4-hydroxypiperidin-1-yl)-4-(3-(trifluoromethyl)phenylamino)pyrido[4,3-d]pyrimidine-5(6H)-one]
[1]
  % inhibition (reported as percent control): 31%
[2]
  % inhibition (reported as percent control): 11%
[3]
  % inhibition (reported as percent control): 34%
[4]
  % inhibition (reported as percent control): 28%
[5]
  % inhibition (reported as percent control): 4.4%
[6]
  % inhibition (reported as percent control): 4.8%
[7]
  % inhibition (reported as percent control): 25%
[8]
  % inhibition (reported as percent control): 7%
[9]
  % inhibition (reported as percent control): 9.3%
[10]
  % inhibition (reported as percent control): 18%
[11]
  % inhibition (reported as percent control): 2.2%
[12]
  % inhibition (reported as percent control): 21%
[13]
  % inhibition (reported as percent control): 19%
[14]
  % inhibition (reported as percent control): 13%
[15]
  % inhibition (reported as percent control): 16%
[16]
  % inhibition (reported as percent control): 18%
[17]
  % inhibition (reported as percent control): 3.6%
[18]
  % inhibition (reported as percent control): 2.6%
[19]
  % inhibition (reported as percent control): 1%
[20]
  % inhibition (reported as percent control): 16%
[21]
  TGI: 100 µM
[21]; Homo sapiens
  GI50: 2.09 µM
  pIC50: 5.39
  LC50: 100 µM
[22]; Homo sapiens
  GI50: 2.34 µM
  pIC50: 5.12
[22]; [26]
  CC50: 34.7 µM
[22]
  TGI: 10 µM
[23]; Homo sapiens
  GI50: 4.68 µM
  pIC50: 4.96
[23]; [26]
  CC50: 50.1 µM
[23]
  TGI: 17.4 µM
[24]; Homo sapiens
  GI50: 1.35 µM
  pIC50: 5.44
[24]; [26]
  CC50: 46.8 µM
[24]
  TGI: 3.98 µM
[25]
  TGI: 85.1 µM
[25]; Homo sapiens
  GI50: 0.708 µM
  pIC50: 5.65
[25]; [26]
  CC50: 100 µM
